Patent US20120202287A1, “Stem Cell Culture Methods” (priority 2009, published 2012)

Tested on: SA121 hESCs
Experiment: General (monolayer) differentiation on matrigel in defined media, qRT-PCR of stem cell and differentiation markers after 14 days
Format: cell-based, human
Design: key to NO EHNA EFFECT: X: NO EHNA EFFECT; key to Full EHNA effect: those which maintained at least 50% of the level of NANOG-expression in comparison to EHNA and those that inhibited the expression of PAX6 to 50% or less than the value untreated controls were considered to have an EHNA-like effect
Conditions: for PARTIAL EHNA EFFECT (PAX6): only PAX6 50% or less of untreated control; for NO EHNA EFFECT: neither NANOG nor PAX6 criterion met; for Full EHNA effect: NANOG at least 50% of EHNA level and PAX6 50% or less of untreated control; for stem cell marker expression (NANOG, ZFP42, POU5F1) in differentiating conditions: FIG. 9a
Procedure: In order to ascertain the efficacy of the compounds of the present invention, each compound was tested to determine whether it can maintain the stem cell marker NANOG and/or block the differentiation marker PAX6 in the face of differentiating conditions in a manner similar to EHNA. Cells enzymatically passaged onto matrigel-coated dishes and grown for 2 weeks in defined media with or without (control) compound addition were analysed by qRT-PCR to determine the level of NANOG and PAX6 expression.
For general differentiation experiments cells were passaged with trypsin onto matrigel coated twelve-well dishes in the fully supportive media (see above). The media was then changed to defined media 24 h later and any experimental component was first added at this point. The media and experimental supplement were changed daily.
Cells were routinely harvested for qRT-PCR analysis 14 days after the first addition of the experimental compound.
Total RNA was extracted using QIAGEN RNeasy kits (Qiagen Inc, Valencia, Calif., http://www.qiagen.com) and DNaseI treatment was performed using Turbo DNA-Free (Ambion). The absence of genomic DNA was confirmed by quantitative PCR (qPCR) (see below) using glyceraldehyde-3-phosphate dehydrogenase (GAPDH) Taqman primers and probe (MWG). cDNA was synthesized with 2 μg total RNA in 20 μl using Superscript II according to manufacturers' instructions ((Carlsbad, Calif., http://www.Invitrogen.com)). For qPCR, cDNAs were diluted 1 in 60 and 5 μl used per sample in a 15 μl total reaction volume. Platinum pPCR supermix UDG with Rox (Carlsbad, Calif., http://www.Invitrogen.com) was used according to the manufacturer's instructions using an Applied Biosystems 7300 real time PCR system (Applied Biosystems, Warrington, UK, http://europe.appliedbiosystems.com). Each reaction contained 0.6 μM of each primer and Taqman probe (MWG). Biological and technical replicates were each performed in triplicate for each sample, standardised to the GAPDH housekeeping gene and relative expression values were calculated using the 7300 system SDS software (Applied Biosystems, Warrington, UK, http://europe.appliedbiosystems.com).
Cells were enzymatically passaged onto matrigel-coated dishes and grown for 2 weeks in defined media. After 14 days, qRT-PCR was utilised to analyse the expression of a variety of markers of pluripotency and differentiation. In the graphs in FIG. 9 the value 1 was set to the expression level of the gene in undifferentiated SA121 hESCs.
Cells were enzymatically passaged onto matrigel-coated dishes and grown for 2 weeks in defined media (1× confluent T25 tissue culture flask was passaged to 2×12 well dishes) with or without (control) compound addition. All compounds were added at 10 uM and each was performed in triplicate. Media and compounds were changed every 48 hours. After 14 days RNA was isolated and qRT-PCR was utilised to analyse the expression of NANOG and PAX6. The results are illustrated in FIGS. 13 to 17.
In the graphs in FIGS. 13, 14 15, 16 and 17 the value 1 was set relative to the expression level of the gene in the control (no compound) samples. […] This experiment allowed the effect of the EHNA-related compounds to be measured directly in comparison to EHNA. […] Those which had on effect, to these levels, on either PAX6 or NANOG were considered to have a partial-EHNA effect.

In the case of `CCCCCC[C@@H]([C@@H](C)O)n1cnc2c(N)ncnc21` [HWC52, (2R,3S)-3-(6-amino-9H-purin-9-yl)nonan-2-ol], the “PARTIAL EHNA EFFECT (PAX6)” value (10 uM, 14 days, qRT-PCR) is reported as “X (Those which had on effect, to these levels, on either PAX6 or NANOG were considered to have a partial-EHNA effect)”.

In the case of `CCCCCC[C@H](O)[C@@H](C)n1cnc2c(OC)ncnc21` [HWC49, (2R,3S)-2-(6-methoxy-9H-purin-9-yl)nonan-3-ol], the “NO EHNA EFFECT” value (10 uM, 14 days, qRT-PCR) is reported as “X”.

With `CCCCCCCCCn1cc2c(N)ncnc2n1.Cl` [HWC30, 2-nonyl-2H-pyrazolo[3,4-d]pyrimidin-4-amine hydrochloride] the “Full EHNA effect” value (10 uM, 14 days, qRT-PCR) was “X”.

With `CCCCCC[C@H]([C@H](C)O)n1cnc2c(N)ncnc21` [HWC46, (2S,3R)-3-(6-amino-9H-purin-9-yl)nonan-2-ol] the “Full EHNA effect” value (10 uM, 14 days, qRT-PCR) was “X”.

For `CCCCCC[C@@H](O)[C@H](C)n1cnc2c(OC)ncnc21` [HWC51, (2S,3R)-2-(6-methoxy-9H-purin-9-yl)nonan-3-ol], the “NO EHNA EFFECT” value (10 uM, 14 days, qRT-PCR) was “X”.

In the case of `CCCCCCCC(CC)n1cnc2c(N)ncnc21` (racemic) [HWC63, (rac)-9-(decan-3-yl)-9H-purin-6-amine], the “PARTIAL EHNA EFFECT (PAX6)” value (10 uM, 14 days, qRT-PCR) is reported as “X (Those which had on effect, to these levels, on either PAX6 or NANOG were considered to have a partial-EHNA effect)”.

For `CCCCCCCCCn1ncc2c(N)ncnc21.Cl` [HWC31, 1-nonyl-1H-pyrazolo[3,4-d]pyrimidin-4-amine hydrochloride], the “Full EHNA effect” value (10 uM, 14 days, qRT-PCR) was “X”.

In the case of `CCCCCC[C@H](O)[C@@H](C)n1cnc2c(N)ncnc21` [HWC48, (2R,3S)-2-(6-amino-9H-purin-9-yl)nonan-3-ol], the “PARTIAL EHNA EFFECT (PAX6)” value (10 uM, 14 days, qRT-PCR) is reported as “X (Those which had on effect, to these levels, on either PAX6 or NANOG were considered to have a partial-EHNA effect)”.

With `COc1ncnc2c1ncn2[C@H](CCc1ccccc1)[C@H](C)O.Cl` [HWC45, (2S,3R)-3-(6-methoxy-9H-purin-9-yl)-5-phenylpentan-2-ol hydrochloride] the “NO EHNA EFFECT” value (10 uM, 14 days, qRT-PCR) was “X”.

In the case of `CCCCCCCCCCn1cc2c(N)ncnc2n1.Cl` [HWC6, 2-decyl-2H-pyrazolo[3,4-d]pyrimidin-4-amine hydrochloride], the “Full EHNA effect” value (10 uM, 14 days, qRT-PCR) is reported as “X”, the “prevention of differentiation of hESCs” value (FIG. 10) is reported as “can prevent differentiation of hESCs” and the “PAX6 expression in differentiating conditions” value (qRT-PCR, 14 days) is reported as “inhibiting PAX6 expression”. The “NANOG expression in differentiating conditions” value (qRT-PCR, 14 days, relative to untreated control) was “capable of maintaining NANOG”.

With `CCCCCC[C@@H](O)[C@H](C)n1cnc2c(N)ncnc21` [HWC50, (2S,3R)-2-(6-amino-9H-purin-9-yl)nonan-3-ol] the “PARTIAL EHNA EFFECT (PAX6)” value (10 uM, 14 days, qRT-PCR) was “X (Those which had on effect, to these levels, on either PAX6 or NANOG were considered to have a partial-EHNA effect)”.

With `CCCCCCCCn1ncc2c(N)ncnc21.Cl` [HWC40, 1-octyl-1H-pyrazolo[3,4-d]pyrimidin-4-amine hydrochloride] the “Full EHNA effect” value (10 uM, 14 days, qRT-PCR) was “X”.

`COCCOCCn1ncc2c(N)ncnc21` [HWC34, 1-[2-(2-methoxyethoxy)ethyl]-1H-pyrazolo[3,4-d]pyrimidin-4-amine] was tested, and the “PARTIAL EHNA EFFECT (PAX6)” value (10 uM, 14 days, qRT-PCR) was “X (Those which had on effect, to these levels, on either PAX6 or NANOG were considered to have a partial-EHNA effect)”.

In the case of `CCCCCC[C@@H]([C@@H](C)O)n1cnc(C(=O)NC)c1` [HWC7, erythro-1-(2-hydroxynonan-3-yl)-N-methyl-1H-imidazole-4-carboxamide], the “NO EHNA EFFECT” value (10 uM, 14 days, qRT-PCR) is reported as “X”.

With `CCCCCCC(CC)n1cnc2c(N)ncnc21` (racemic) [HWC57, (rac)-9-(Nonan-3-yl)-9H-purin-6-amine] the “Full EHNA effect” value (10 uM, 14 days, qRT-PCR) was “X”.

`CCCCCC[C@H]([C@H](C)O)n1cnc2c(OC)ncnc21` [HWC47, (2S,3R)-3-(6-methoxy-9H-purin-9-yl)nonan-2-ol] was tested, and the “NO EHNA EFFECT” value (10 uM, 14 days, qRT-PCR) was “X”.

`COc1ccc(Cc2nn3c([C@@H](CCCc4ccccc4)[C@@H](C)O)nc(C)c3c(=O)[nH]2)cc1OC` [BAY-60-7550, reference compound] was tested, and the “PAX6 expression in differentiating conditions” value (qRT-PCR, 14 days) was “nor did they inhibit PAX6 induction” and the “stem cell marker expression (NANOG, ZFP42, POU5F1) in differentiating conditions” value (qRT-PCR, 14 days) was “Neither BAY nor IBMX maintained stem cell marker expression”.

For `CCCCCC[C@@H]([C@@H](C)O)n1nnc2c(N)ncnc21` [HWC26, erythro-3-(7-amino-3H-[1,2,3]triazolo[4,5-d]pyrimidin-3-yl)nonan-2-ol], the “PARTIAL EHNA EFFECT (PAX6)” value (10 uM, 14 days, qRT-PCR) was “X (Those which had on effect, to these levels, on either PAX6 or NANOG were considered to have a partial-EHNA effect)”.

`CCCCCCCCCCCn1ncc2c(N)ncnc21.Cl` [HWC33, 1-undecyl-1H-pyrazolo[3,4-d]pyrimidin-4-amine hydrochloride] was tested, and the “Full EHNA effect” value (10 uM, 14 days, qRT-PCR) was “X”.

In the case of `CCCCCC[C@@H]([C@@H](C)O)n1cnc(C(N)=O)c1` [HWC36, erythro-1-(2-hydroxynonan-3-yl)-1H-imidazole-4-carboxamide], the “NO EHNA EFFECT” value (10 uM, 14 days, qRT-PCR) is reported as “X”.

`CCCCCCCCn1cc2c(N)ncnc2n1.Cl` [HWC41, 2-octyl-2H-pyrazolo[3,4-d]pyrimidin-4-amine hydrochloride] was tested, and the “Full EHNA effect” value (10 uM, 14 days, qRT-PCR) was “X”.

In the case of `CC(C)Cn1c(=O)n(C)c(=O)c2[nH]cnc21` [IBMX, 3-Isobutyl-1-methylxanthine, reference compound], the “PAX6 expression in differentiating conditions” value (qRT-PCR, 14 days) is reported as “nor did they inhibit PAX6 induction” and the “stem cell marker expression (NANOG, ZFP42, POU5F1) in differentiating conditions” value (qRT-PCR, 14 days) is reported as “Neither BAY nor IBMX maintained stem cell marker expression”.

For `COc1ncnc2c1ncn2[C@H](C)[C@@H](O)CCc1ccccc1.Cl` [HWC43, (3S,4R)-4-(6-methoxy-9H-purin-9-yl)-1-phenylpentan-3-ol hydrochloride], the “NO EHNA EFFECT” value (10 uM, 14 days, qRT-PCR) was “X”.

For `CCCCCCC(C(C)O)n1cnc2c(NC)ncnc21` (stereo not drawn) [HWC16, erythro-3-[6-(methylamino)-9H-purin-9-yl]nonan-2-ol], the “PARTIAL EHNA EFFECT (PAX6)” value (10 uM, 14 days, qRT-PCR) was “X (Those which had on effect, to these levels, on either PAX6 or NANOG were considered to have a partial-EHNA effect)”.

With `CCCCC[C@H](O)[C@@H](C)n1cnc2c(N)ncnc21` [HWC58, (2R,3S)-2-(6-amino-9H-purin-9-yl)octan-3-ol] the “PARTIAL EHNA EFFECT (NANOG)” value (10 uM, 14 days, qRT-PCR, only NANOG at least 50% of EHNA level) was “X (Those which had on effect, to these levels, on either PAX6 or NANOG were considered to have a partial-EHNA effect)”.

For `CCCCCC[C@@H]([C@@H](C)O)n1cnc2cnccc21` [HWC8, erythro-3-(1H-imidazo[4,5-c]pyridin-1-yl)nonan-2-ol], the “PARTIAL EHNA EFFECT (PAX6)” value (10 uM, 14 days, qRT-PCR) was “X (Those which had on effect, to these levels, on either PAX6 or NANOG were considered to have a partial-EHNA effect)”.

With `CCCCCCC(C(C)O)n1cnc2c(Cl)ncnc21` (stereo not drawn) [HWC10, erythro-3-(6-Chloro-9H-purin-9-yl)nonan-2-ol] the “PARTIAL EHNA EFFECT (PAX6)” value (10 uM, 14 days, qRT-PCR) was “X (Those which had on effect, to these levels, on either PAX6 or NANOG were considered to have a partial-EHNA effect)”.

For `CCCCC[C@H]([C@H](C)O)n1cnc2c(N)ncnc21` [HWC59, (2S,3R)-3-(6-amino-9H-purin-9-yl)octan-2-ol], the “NO EHNA EFFECT” value (10 uM, 14 days, qRT-PCR) was “X”.

With `CCCCCC[C@@H]([C@@H](C)O)n1cnc2c(N(C)C)ncnc21.Cl` [HWC17, erythro-3-[6-(dimethylamino)-9H-purin-9-yl]nonan-2-ol hydrochloride] the “PARTIAL EHNA EFFECT (PAX6)” value (10 uM, 14 days, qRT-PCR) was “X (Those which had on effect, to these levels, on either PAX6 or NANOG were considered to have a partial-EHNA effect)”.

In the case of `C[C@H](O)[C@@H](CCc1ccccc1)n1cnc2c(N)ncnc21.Cl` [HWC44, (2S,3R)-3-(6-amino-9H-purin-9-yl)-5-phenylpentan-2-ol hydrochloride], the “NO EHNA EFFECT” value (10 uM, 14 days, qRT-PCR) is reported as “X”.

`CCCCCC[C@@H]([C@@H](C)O)n1cnc2c(N)nccc21.Cl` [HWC9, erythro-3-(4-Amino-1H-imidazo[4,5-c]pyridin-1-yl)nonan-2-ol hydrochloride] was tested, and the “PARTIAL EHNA EFFECT (PAX6)” value (10 uM, 14 days, qRT-PCR) was “X (Those which had on effect, to these levels, on either PAX6 or NANOG were considered to have a partial-EHNA effect)”.
